In patent US20120329758A1, “Combined Treatment Utilizing VB-201” (priority 2010, published 2012):

How the values were obtained:
[1] = tested on: atherosclerosis (aortic lesion area) in rabbits fed a high-cholesterol diet; experiment: Measurement of aortic lesion area in rabbits fed a high-cholesterol diet; type: in vivo, male New Zealand White rabbits; conditions: high-cholesterol diet 14 weeks, atorvastatin approx. 2.5 mg/kg daily in diet, VB-201 approx. 4 mg/kg oral gavage 5 days per week, FIG. 1
Method: Aortas were collected upon sacrifice. Lesion area was determined by scanning the intensity of Sudan IV stain adhering to the lesioned tissue, using Image-Pro Plus software (Media Cybernetics). Lesion areas were calculated in three different sections of the aorta (aortic arch, thoracic aorta and abdominal aorta). The total aortic lesion area (sum of lesion areas in all 3 sections) was calculated as a percentage of the sum of all 3 section areas.
Atherosclerosis was induced in male New Zealand White rabbits (hsdIF:NZ, Harlan) by supplying the rabbits with a high-cholesterol diet (0.5% w/w cholesterol) for 14 weeks. The rabbits were assigned to four treatment groups (7 or 8 animals per group): a) atorvastatin treatment; b) VB-201 treatment; c) combined atorvastatin+VB-201 treatment; and d) PBS with 0.5% ethanol (control group). […]
(§1) At the end of 14 weeks, the rabbits were sacrificed, and the effects of the treatments were evaluated by measurement of aortic lesion areas and plasma cholesterol levels, and routine blood chemistry assessment (as described hereinabove). Plasma cholesterol levels were also determined after 5 weeks of the high-cholesterol diet.

[2] = Blood chemistry assay (SGPT, alkaline phosphatase) in rabbits fed a high-cholesterol diet; type: in vivo, male New Zealand White rabbits; conditions: 14 weeks of high-cholesterol diet, atorvastatin 2.5 mg/kg, VB-201 4 mg/kg
Method: Blood chemistry was assayed by the Pathological Chemistry Institute Laboratory (Sheba Medical Center, Israel) using an AU2700® spectrophotometer (Olympus) and the appropriate Olympus reagents. The parameters evaluated were urea, creatinine, glucose, potassium, sodium, chloride, total calcium, phopshorus, uric acid, bilirubin, SGOT, SGPT, LDH, total CPK, CPK-MB, CK-MB %, total protein, albumin, globulin, alkaline phosphatase and osmolality levels. Atherosclerosis was induced in male New Zealand White rabbits (hsdIF:NZ, Harlan) by supplying the rabbits with a high-cholesterol diet (0.5% w/w cholesterol) for 14 weeks. The rabbits were assigned to four treatment groups (7 or 8 animals per group): a) atorvastatin treatment; b) VB-201 treatment; c) combined atorvastatin+VB-201 treatment; and d) PBS with 0.5% ethanol (control group). […] VB-201 was administered daily (5 days per week) by oral gavage of the stock solution (2.7 mg/ml) at volume of 1.5 ml per kg body weight, corresponding to a dose of approximately 4 mg/kg. At the end of 14 weeks, the rabbits were sacrificed, and the effects of the treatments were evaluated by measurement of aortic lesion areas and plasma cholesterol levels, and routine blood chemistry assessment (as described hereinabove).

[3] = Plasma cholesterol assay in rabbits fed a high-cholesterol diet; type: in vivo, male New Zealand White rabbits; conditions: for Average cholesterol level / Average cholesterol level (% of control): plasma, atorvastatin 2.5 mg/kg, VB-201 4 mg/kg; for effect on cholesterol levels (in words): rabbits on high-cholesterol diet, atorvastatin 2.5 mg/kg (alone or with VB-201), VB-201 4 mg/kg per se
Method: Plasma cholesterol levels were determined in the Bert W. Strassburger Lipid Center (Sheba Medical Center, Israel) using a Cobas Mira analyzer (Roche) and cholesterol reagent (Roche/Hitach).
Atherosclerosis was induced in male New Zealand White rabbits (hsdIF:NZ, Harlan) by supplying the rabbits with a high-cholesterol diet (0.5% w/w cholesterol) for 14 weeks. The rabbits were assigned to four treatment groups (7 or 8 animals per group): a) atorvastatin treatment; b) VB-201 treatment; c) combined atorvastatin+VB-201 treatment; and d) PBS with 0.5% ethanol (control group).
Atorvastatin was administered by supplementing the diet with 50 mg/kg atorvastatin, which corresponds to a daily dose of approximately 2.5 mg/kg, based on a daily food consumption of approximately 125 grams per rabbit and an average weight of 2.5 kg.
VB-201 was administered daily (5 days per week) by oral gavage of the stock solution (2.7 mg/ml) at volume of 1.5 ml per kg body weight, corresponding to a dose of approximately 4 mg/kg.
as §1

[4] = tested on: DSS-induced colitis in mice; experiment: Dextran sulfate sodium (DSS)-induced colitis model; type: in vivo; conditions: for body weight loss: DSS colitis mice, VB-201 oral daily; for body weight loss / disease activity index (DAI), chronic phase / disease activity index (DAI), acute phase: glatiramer acetate 2 mg per mouse s.c. daily; for disease activity index (DAI), chronic phase: after about day 20; for disease activity index (DAI), chronic phase / disease activity index (DAI), acute phase: VB-201 0.04, 0.4 or 4 mg/kg oral daily, FIG. 3; for disease activity index (DAI), acute phase: until about day 20
Method: Colitis was induced in mice with dextran sulfate sodium (DSS), to serve as a model of inflammatory disorders. A solution of 2% DSS was administered in the drinking water of the mice on days 0-4, 19-23 and 32-36 of the experiment.
VB-201 was administered by oral gavage at daily doses of 0.04, 0.4 or 4 mg/kg, beginning 5 days prior to disease induction (i.e., first day of DSS administration). In an alternative treatment, 2 mg per mouse of glatiramer acetate was administered subcutaneously, daily from day 0. Each treatment group included 20 mice. As a negative control, 15 mice were administered vehicle (PBS with 0.5% ethanol) by gavage beginning 5 days prior to disease induction. […], 8 mice were administered vehicle (PBS with 0.5% ethanol) by gavage beginning 5 days prior to disease induction, without treatment with DSS, and 5 mice received no treatment at all. Mice were sacrificed on day 39, and their colon length and weight was determined.
Mice were scored according to a disease activity index (DAI), based on the average score for weight loss, stool consistency and bleeding, as follows: […]

C-reactive protein (CRP) = conditions: healthy humans; previously shown; cited from earlier work
[5] = 5 weeks of high-cholesterol diet
[6] = 14 weeks of high-cholesterol diet
[7] = day 39, VB-201 at all tested doses (0.04, 0.4, 4 mg/kg), glatiramer acetate 2 mg per mouse, FIG. 4
[8] = glatiramer acetate 2 mg per mouse s.c. daily from day 0, FIG. 2

Compound | reduction of aortic lesion areas relative to the control group [1] | Average cholesterol level [3, 5] | Average cholesterol level (% of control) [3, 5] | Average cholesterol level [3, 6] | Average cholesterol level (% of control) [3, 6] | effect on cholesterol levels (in words) [3] | body weight loss [4] | disease activity index (DAI), chronic phase [4] | DSS-induced shortening of the colon length [4, 7] | disease activity index (DAI), acute phase [4] | further results
CC(C)c1c(C(=O)Nc2ccccc2)c(-c2ccccc2)c(-c2ccc(F)cc2)n1CC[C@@H](O)C[C@@H](O)CC(=O)O [Atorvastatin] | 33% | 580 mg/dL | 56 % of control | 1082 mg/dL | 64 % of control | reduced cholesterol levels considerably | – | – | – | – | Average Alkaline Phosphatase level [2]: 104.63 IU/L; Average Alkaline Phosphatase level (% of control) [2]: 174 % of control; Average SGPT level [2]: 110.63 IU/L; Average SGPT level (% of control) [2]: 235 % of control; effect on SGPT and alkaline phosphatase levels (in words) ([2]; rabbits): increased
CCCCCCCCCCCCCCCCOCC(COP(=O)([O-])OCC[N+](C)(C)C)OCCCCC(=O)O (stereo not shown) [VB-201, 1-hexadecyl-2-(4′-carboxybutyl)-glycerol-3-phosphocholine] | 39% | 1303 mg/dL | 126 % of control | 2195 mg/dL | 131 % of control | did not reduce cholesterol levels | reduced body weight loss over the period of days 17-24 | reduced the DAI | partially reversed | without reducing the DM | survival at day 39 ([4]; VB-201 at all tested doses (0.04, 0.4 or 4 mg/kg daily oral gavage), FIG. 2): at least 80%; effect on colon length, compared between doses ([4]; day 39, 0.04 mg/kg VB-201 versus 0.4 and 4 mg/kg, FIG. 4): more effective than the higher doses; DSS-induced increase in the colon weight/length ratios ([4]; day 39, VB-201 at all tested doses (0.04, 0.4, 4 mg/kg), glatiramer acetate 2 mg per mouse, FIG. 5): partially reversed; C-reactive protein (CRP) levels, a marker for inflammation (C-reactive protein (CRP)): effective at reducing
Glatiramer acetate | – | – | – | – | – | – | reduced body weight loss over the period of days 8-22 | did not reduce the DAI | not effective | reduced the DAI | survival by day 39 compared with control mice [4, 8]: below that of control mice; survival until day 23 [4, 8]: 100%
